Data reported in patent publication US20250009716A1, “NOVEL INHIBITORS OF CLAUDIN-1 FOR THERAPEUTIC INTERVENTIONS” (BOARD OF REGENTS OF THE UNIVERSITY OF NEBRASKA, priority 2021, published 2025).
Entries after “also recorded” stand apart in the source; their conditions may differ.

Experiments:
[1] = tested on: Claudin-1 deficient HCT116 cells; experiment: Resistance to anoikis in claudin-1 deficient cells (negative control); format: cell-based
Excerpt: The crystal structure of claudin-1 is unknown. Therefore, an in-silico protein folding program, YASARA, was used to identify an effective claudin-1 inhibitor. The resultant 3D-structure was then modeled using Molegro Virtual Docker (MVD) software program. These in-silico analyses identified putative cavities in the claudin-1 protein that can be targeted by small molecule inhibitors. Next, a 100K library of small molecules was screened in silico using the MVD. The top 10 inhibitors that bound to the Site #3 (targeting near c-terminal domain; the most accessible pocket; FIG. 2A) with the best binding energies were selected as hits and used for further testing. Screening of these inhibitors named Inihibitor-1 (1-1) to Inhibitor-10 (I-10) was done using SW480claudin-1, SW620 and control cells. Claudin-1 deficient HCT116 cells (WT-APC) or SW620shRNAcld-1 were used as negative controls. Resistance to anoikis and cell invasion was used as biological end-points in testing these inhibitors. […]

[2] = Metabolic stability in mouse liver S9 fractions; format: in vitro ADME
Experimental: To determine the in vivo characteristics of this drug, a pharmacokinetic and tissue distribution study on 16 was performed. Following a single i.v. dose of 16 (1 mg/kg) in mice (C57B/16; n=5), serial blood samples were obtained at 0.08, 0.25, 0.75, 2, 4, 6, 8 and 24 hours after the injection and plasma samples were analyzed for 16 concentrations. Pharmacokinetic parameter values were obtained from the plasma concentration-time data using standard non-compartmental methods (WinNonlin, PharSight Corp). […] To assess the tissue distribution of 16, mice were sacrificed at 2, 8 and 24 hours after the i.v. administration of the drug. Measurable concentrations of 16 were detected in all studied tissues at 2, 8, and 24 h. […] Next, metabolic stability studies of 16 was evaluated using mouse liver S9 fractions for the in vitro assessment of phase I and II metabolism. […] Testosterone, 7-HC and diclofenac were used as positive controls, ensuring proper incubation conditions were maintained. […]
(§1) Metabolic stability and reaction phenotyping: The in vitro metabolic stability of studies was determined using mice and human liver microsomes and S9 fractions (XenoTech, LLC, Lenexa, KS, USA) following standard protocols (33, 35, 36). […] Drug concentrations were determined using LC-MS/MS. […] UGTs are analyzed in Corning® Supersomes™ if incubation of HLMs with UDPGA also results in metabolite formation.

[3] = Phase I metabolism in human liver microsomes; format: in vitro ADME; details: 60 minutes, compared to 16
Excerpt: The result of the metabolic stability study was expressed as the % drug conc. remaining.
(§2) To this end, a library of molecules was synthesized in order to develop an initial SAR evaluation. The first compounds tested eliminated the acylated (thio) urea as well as the napthyl group and evaluated just the urea/phenyl compounds (Compounds 1-6). The methoxy group of the naphthalene ring system was needed when the benzimidazole group was present (16 vs. Compound 8). […] The result of metabolic stability was expressed as the percentage of drug remaining at each time. […] To further determine the effect of PDS-0330 on p-Src expression and association, cells were treated with Compound 1, 16 and PDS-0330. Expression and association with p-Src was unaffected with Compound 1 (negative control). The specificity of PDS-0330 for CLDN1 was further confirmed by treating SW480^CLDN1, HCT116^CLDN2 (overexpressing another tight junction protein) or normal IEC-6 cells with PDS-0330 (FIG. 12).
as §1

[4] = tested on: SW620 cells xenograft tumors; experiment: SW620 xenograft tumors; format: in vivo, athymic mice
Experimental: SW620 cells were injected into dorsal flanks of athymic mice to form xenograft tumors. PDS-0330 was injected (5 and 10 mg/kg) when tumors became palpable. Effect on tumor volume and size was determined in time-dependent manner.
The development of flank xenograft tumors in claudin-1 overexpressed SW620 cells injected nude mice was examined between vehicle and PDS-0330 (5 mg/kg and 10 mg/kg) treatment (n=5 mice per group). Representative images of tumor containing mice from the vehicle and PDS-0330 (10 mg/kg).

[5] = tested on: p-Src and p-EphA2 in SW480claudin-1 cells; experiment: Phosphorylation of Src and EphA2 versus dasatinib; format: cell-based
Experimental: Effects on (A) phosphorylation of Src and EphA2 and (B) cell survival (MTT assay) were determined.

[6] = tested on: claudin-1 overexpressed patient-derived xenograft; experiment: Patient-derived xenograft (PDX) tumors; format: in vivo, nude mice; details: 5 mg/kg and 10 mg/kg
Experimental: Representative images of tumors from the vehicle and PDS-0330 (5 mg/kg and 10 mg/kg)-treated claudin-1 overexpressed PDX implanted nude mice.
Tumor volume was measured using calipers over time (n=5 mice per group). The formation of flank xenograft tumors in claudin-1 overexpressed PDX implanted nude mice was examined between vehicle and PDS-0330 (5 mg/kg and 10 mg/kg) treatment (n=5 mice per group). For graphs, data represent mean±SD; *, P<0.05; **, P<0.01; ***, P<0.001 & ****, P<0.0001.
Establishment of fresh patient derived xenograft (PDX) with tumors from the operating room. Human patient colon cancers were excised under standard sterile conditions. Initially, tumor fragments were implanted subcutaneously within 30 min of patient surgery over the right and left upper and lower flanks in nude mice. Subcutaneous tumors were allowed to grow for 2-4 weeks until large enough to supply adequate tumor for orthotopic implantation for PDOX models.

SW480claudin-1 cells [7] = experiment: Soft agar colony formation assay; format: cell-based
Excerpt: as §2

SW480claudin-1 cells [8] = experiment: Cell survival (MTT assay) versus dasatinib; format: cell-based
Experimental: Effects on (A) phosphorylation of Src and EphA2 and (B) cell survival (MTT assay) were determined. Significant changes are boxed.

Row | SMILES | effect on HCT116 cells [1] | primary metabolites identified [2] | drug remaining ([2]; after 60 minutes, phase I and II metabolism) [%] | metabolic stability [3] | tumor size ([4]; 5 and 10 mg/kg) | tumor weight ([4]; mouse, in vivo) | p-EphA2 and p-Src expression [5] | tumor formation [6] | effect on soft agar colony formation (SW480claudin-1 cells [7]) | percent cell survival compared with dasatinib (SW480claudin-1 cells [8])
1 | COc1cc2ccccc2cc1C(=O)NC(=S)Nc1ccc(-c2nc3ccccc3[nH]2)cc1 [Compound 16] | remained unaffected | acetylation and hydroxylation with subsequent glucuronidation | 30 |  |  |  |  |  |  | 
2 | O=C(NC(=S)Nc1ccc(-c2nc3ccccc3o2)cc1)c1ccc2ccccc2c1 [PDS-0330] |  |  |  | metabolically stable over 60 minutes | reduces tumor size in mice | significantly inhibited tumor weight | inhibited p-EphA2 expression along with p-Src; also recorded: more effective in inhibiting cell survival and p-EphA2 expression | inhibits tumor formation | significantly inhibited | significantly decreased percent cell survival more than dasatinib; also recorded: more effective in inhibiting cell survival
